Legend:
[1] = target: T1, His tagged PTPN2 (TC45) protein (Homo sapiens, UniProt P17706); assay: Mobility shift assay (MSA) to determine potency of PTPN2 inhibitors; format: biochemical; conditions: 0.5 nM enzyme, 2 μM substrate
T1 construct: made in house
T1 sequence (P17706 with tags, fused parts or gaps isoform P17706-2): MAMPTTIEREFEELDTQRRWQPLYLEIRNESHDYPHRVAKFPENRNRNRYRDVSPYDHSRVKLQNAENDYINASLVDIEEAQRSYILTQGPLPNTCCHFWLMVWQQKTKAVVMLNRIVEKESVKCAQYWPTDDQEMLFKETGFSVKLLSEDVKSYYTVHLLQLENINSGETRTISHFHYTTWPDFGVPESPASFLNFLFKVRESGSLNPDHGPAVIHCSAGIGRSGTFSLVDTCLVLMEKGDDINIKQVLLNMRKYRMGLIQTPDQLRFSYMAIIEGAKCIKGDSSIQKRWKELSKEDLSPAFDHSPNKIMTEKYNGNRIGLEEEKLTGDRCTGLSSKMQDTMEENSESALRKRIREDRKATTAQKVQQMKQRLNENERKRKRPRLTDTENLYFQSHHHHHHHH
Protocol: Compound activity was determined using in house His tagged PTPN2 (TC45) protein (SEQ ID NO: 1) in an in vitro enzymatic reaction. The enzymatic assay used to determine activity was a mobility shift assay using a LabChip EZ Reader by Caliper Life Sciences. The enzymatic reaction was carried out in assay buffer (50 mM HEPES pH 7.5, 1 mM EGTA, 10 mM EDTA, 0.01% Tween® 20, and 2 mM DTT). The compounds were dispensed on a white 384 well ProxiPlate™ (PerkinElmer Catalog #6008289) plate using the Labcyte Echo at varying concentrations (12 point, 1:3 dilution). The enzyme (at 0.5 nM) was incubated with compound for 10 minutes at room temperature. Then the substrate (phosphorylated insulin receptor probe sequence: ((OG488)-(NH—CH2—CH2—O—CH2—CH2—O—CH2—CO)-T-R-D-I-(PY)-E-T-D-Y—Y—R—K—K—NH2) (SEQ ID NO: 2) was added at 2 μM to the plates and incubated for another 10 minutes at room temperature. Finally, a quench solution (water and 4-bromo-3-(2-oxo-2-propoxyethoxy)-5-(3-{[1-(phenylmethanesulfonyl)piperidin-4-yl]amino}phenyl)thiophene-2-carboxylic acid) was added to the plates, which were then run on the EZ Reader (excitation 488 nm, emission 530 nm) to measure % conversion (the amount of phosphorylated substrate which was de-phosphorylated by PTPN2). […] The % inhibition was then used to calculate the IC50 values.

[2] = target: T2, His tagged full-length PTPN1 protein (Homo sapiens, UniProt P18031); assay: Mobility shift assay (MSA) to determine potency of PTPN1 inhibitors; format: biochemical; conditions: 0.5 nM enzyme, 2 μM substrate
T2 construct: made in house
T2 sequence (P18031 with tags, fused parts or gaps): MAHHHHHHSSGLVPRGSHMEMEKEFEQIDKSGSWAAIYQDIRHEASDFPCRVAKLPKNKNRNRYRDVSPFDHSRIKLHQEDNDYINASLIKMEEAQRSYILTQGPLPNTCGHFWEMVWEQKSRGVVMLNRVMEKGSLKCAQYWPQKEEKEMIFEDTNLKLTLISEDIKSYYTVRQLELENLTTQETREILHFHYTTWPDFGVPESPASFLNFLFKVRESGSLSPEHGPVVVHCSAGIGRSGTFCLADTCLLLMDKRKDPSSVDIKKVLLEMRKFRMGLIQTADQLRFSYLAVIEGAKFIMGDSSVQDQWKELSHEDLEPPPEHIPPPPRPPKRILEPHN
Protocol: Compound activity was determined using in house His tagged full-length PTPN1 protein (SEQ ID NO: 3) in an in vitro enzymatic reaction. The enzymatic assay used to determine activity is a mobility shift assay using a LabChip EZ Reader by Caliper Life Sciences. The enzymatic reaction was carried out in assay buffer (50 mM HEPES pH 7.5, 1 mM EGTA, 10 mM EDTA. 0.01% Tween® 20, and 2 mM DTT). The compounds were dispensed on a white 384 well ProxiPlate™ (PerkinElmer Cat #6008289) plate using a Labcyte Echo® liquid handler at varying concentrations (12 point, 1:3 dilution). The enzyme (at 0.5 nM) was incubated with compound for 10 minutes at room temperature. Then the substrate (phosphorylated insulin receptor probe sequence: ((OG488)-(NH—CH2—CH2—O—CH2—CH2—O—CH2—CO)-T-R-D-I-(PY)-E-T-D-Y—Y—R—K—K—NH2) (SEQ ID NO: 2) was added at 2 μM to the plates and incubated for another 10 minutes at room temperature. Finally, a quench solution (water and 4-bromo-3-(2-oxo-2-propoxyethoxy)-5-(3-{[1-(phenylmethanesulfonyl)piperidin-4-yl]amino}phenyl)thiophene-2-carboxylic acid) was added to the plates, which were then run on the EZ Reader (excitation 488 nm, emission 530 nm) to measure % conversion (the amount of phosphorylated substrate which was de-phosphorylated by PTPN1). […] The % inhibition was then used to calculate the IC50 values.

Row | IC50 [2] [nM] | SMILES | IC50 [1] [nM]
1 | 10 to 100 | O=C1CN(c2c(O)cc3c(c2F)C[C@H](NCC2C4CCCC42)CO3)S(=O)(=O)N1 (mixture of isomers) [Compound 383, 5-[(3S)-3-({[(1RS,5SR)-bicyclo[3.1.0]hexan-6-yl]methyl}amino)-5-fluoro-7-hydroxy-3,4-dihydro-2H-1-benzopyran-6-yl]-1λ^6,2,5-thiadiazolidine-1,1,3-trione] | 10 to 100
2 | 10 to 100 | CC1C[C@@H](NC(=O)OC(C)(C)C)Cc2c1cc(O)c(N1CC(=O)NS1(=O)=O)c2F (mixture of isomers) [Compound 392, tert-butyl [(2R)-8-fluoro-6-hydroxy-4-methyl-7-(1,1,4-trioxo-1λ^6,2,5-thiadiazolidin-2-yl)-1,2,3,4-tetrahydronaphthalen-2-yl]carbamate] | 10 to 100
3 | 10 to 100 | O=C1CN(c2c(O)cc3c(c2F)CN(C[C@H]2C[C@@H]2c2ccncc2)CC3)S(=O)(=O)N1 (racemic) [Compound 248] | 
4 | 10 to 100 | CO[C@@H]1CCc2cc(O)c(N3CC(=O)NS3(=O)=O)c(F)c2C1 (single isomer, unassigned) [Compound 104] | 
5 | 10 to 100 | CO[C@H]1CCc2cc(O)c(N3CC(=O)NS3(=O)=O)c(F)c2C1 (single isomer, unassigned) [Compound 109] | 
6 | 10 to 100 | CC(C)CCN[C@H]1CCc2cc(O)c(N3CC(=O)NS3(=O)=O)c(F)c2C1 (single isomer, unassigned) [Compound 117] | 
7 | 1 to 10 | O=C1CN(c2c(O)cc3c(c2F)C[C@H](NCCC2CC2)CC3)S(=O)(=O)N1 (single isomer, unassigned) [Compound 133] | 
8 | 10 to 100 | O=C1CN(c2c(O)cc3c(c2F)C[C@@H](NCCC2CC2)CC3)S(=O)(=O)N1 (single isomer, unassigned) [Compound 134] | 
9 | 10 to 100 | O=C1CN(c2c(O)cc3c(c2F)C[C@@H]([C@@H]2CCNC2)CC3)S(=O)(=O)N1 (single isomer, unassigned) [Compound 136] | 
10 | 1 to 10 | O=C1CN(c2c(O)cc3c(c2F)C[C@@H]([C@@H]2CCN(S(=O)(=O)C4CC4)C2)CC3)S(=O)(=O)N1 (single isomer, unassigned) [Compound 137] | 
11 | 10 to 100 | O=C1CN(c2c(O)cc3c(c2F)C[C@@H]([C@H]2CCNC2)CC3)S(=O)(=O)N1 (single isomer, unassigned) [Compound 138] | 
12 | 10 to 100 | O=C1CN(c2c(O)cc3c(c2F)C[C@@H]([C@H]2CCN(S(=O)(=O)C4CC4)C2)CC3)S(=O)(=O)N1 (single isomer, unassigned) [Compound 139] | 
13 | 10 to 100 | O=C1CN(c2c(O)cc3c(c2F)C[C@@H](NCCCC(F)(F)F)CC3)S(=O)(=O)N1 (single isomer, unassigned) [Compound 147] | 
14 | < 1 | O=C1CN(c2c(O)cc3c(c2F)C[C@H](NCCC2(C(F)(F)F)CC2)CC3)S(=O)(=O)N1 (single isomer, unassigned) [Compound 148] | 
15 | 10 to 100 | CC(C)(CCN[C@H]1CCc2cc(O)c(N3CC(=O)NS3(=O)=O)c(F)c2C1)C(F)(F)F (single isomer, unassigned) [Compound 176] | 
16 | 1 to 10 | CC(C)(CCN[C@@H]1CCc2cc(O)c(N3CC(=O)NS3(=O)=O)c(F)c2C1)C(F)(F)F (single isomer, unassigned) [Compound 177] | 
17 | < 1 | O=C1CN(c2c(O)cc3c(c2F)C[C@H](NCCCC(F)F)CC3)S(=O)(=O)N1 (single isomer, unassigned) [Compound 199] | 
18 | 10 to 100 | O=C1CN(c2c(O)cc3c(c2F)C[C@@H](NCCC(F)F)CC3)S(=O)(=O)N1 (single isomer, unassigned) [Compound 259] | 

Row | IC50 [2] [nM] | SMILES | IC50 [1] [nM]
19 | 1 to 10 | O=C1CN(c2c(O)cc3c(c2F)C[C@H](NCCC(F)F)CC3)S(=O)(=O)N1 (single isomer, unassigned) [Compound 260] | 
20 | 1 to 10 | CC(C)CCNC[C@@H]1Cc2cc(O)c(N3CC(=O)NS3(=O)=O)c(F)c2C1 (single isomer, unassigned) [Compound 291] | 
21 | 10 to 100 | CC(C)CCNC[C@H]1Cc2cc(O)c(N3CC(=O)NS3(=O)=O)c(F)c2C1 (single isomer, unassigned) [Compound 292] | 
22 | 1 to 10 | C[C@@H](O)CCN[C@@H]1CCc2cc(O)c(N3CC(=O)NS3(=O)=O)c(F)c2C1 (single isomer, unassigned) [Compound 307] | 
23 | 1 to 10 | CC(C)(CO)CCN[C@@H]1CCc2cc(O)c(N3CC(=O)NS3(=O)=O)c(F)c2C1 (single isomer, unassigned) [Compound 308] | 
24 | > 100 | [2H]C1([2H])Cc2cc(O)c(N3CC(=O)NS3(=O)=O)c(F)c2C([2H])([2H])[C@@]1([2H])NCCC(C)C (single isomer, unassigned) [Compound 370] | 10 to 100
25 | 1 to 10 | [2H]C1([2H])Cc2cc(O)c(N3CC(=O)NS3(=O)=O)c(F)c2C([2H])([2H])[C@]1([2H])NCCC(C)C (single isomer, unassigned) [Compound 371] | < 1
26 | 10 to 100 | NC[C@H]1Cc2cc(O)c(N3CC(=O)NS3(=O)=O)c(F)c2C1 (single isomer, unassigned) [Compound 407] | 10 to 100
27 | 1 to 10 | NC[C@@H]1Cc2cc(O)c(N3CC(=O)NS3(=O)=O)c(F)c2C1 (single isomer, unassigned) [Compound 408] | 1 to 10
28 | 10 to 100 | O=C1CN(c2c(O)cc3c(c2F)CCCC3)S(=O)(=O)N1 [Compound 108] | 10 to 100
29 | 10 to 100 | O=C1CN(c2c(O)cc3c(c2F)CCCO3)S(=O)(=O)N1 [Compound 111, 5-(5-fluoro-7-hydroxy-3,4-dihydro-2H-1-benzopyran-6-yl)-1λ^6,2,5-thiadiazolidine-1,1,3-trione] | 10 to 100
30 | > 100 | CC1(C)CCc2c(cc(O)c(N3CC(=O)NS3(=O)=O)c2F)O1 [Compound 112] | > 100
31 | > 100 | CC1(C)CCc2cc(O)c(N3CC(=O)NS3(=O)=O)c(F)c2O1 [Compound 113] | > 100
32 | > 100 | O=C1CN(c2c(O)cc3c(c2F)CNCC3)S(=O)(=O)N1 [Compound 143, 5-(8-fluoro-6-hydroxy-1,2,3,4-tetrahydroisoquinolin-7-yl)-1λ^6,2,5-thiadiazolidine-1,1,3-trione] | 10 to 100
33 |  | Cc1cc(CNC(=O)N2CCc3cc(O)c(N4CC(=O)NS4(=O)=O)c(F)c3C2)n(C)n1 [Compound 265] | 10 to 100
34 |  | CN(C)CCCNC(=O)N1CCc2cc(O)c(N3CC(=O)NS3(=O)=O)c(F)c2C1 [Compound 285] | 10 to 100
35 | 1 to 10 | CC(C)CCCC1CCc2cc(O)c(N3CC(=O)NS3(=O)=O)c(F)c2C1 (centres unmarked) [Compound 323] | 
36 |  | CC1=C(CCN[C@@H]2COc3cc(O)c(N4CC(=O)NS4(=O)=O)c(F)c3C2)C(C)(C)CCC1 [Compound 378, 5-[(3S)-5-fluoro-7-hydroxy-3-{[2-(2,6,6-trimethylcyclohex-1-en-1-yl)ethyl]amino}-3,4-dihydro-2H-1-benzopyran-6-yl]-1λ^6,2,5-thiadiazolidine-1,1,3-trione] | 10 to 100

From US20250122160A1, “PROTEIN TYROSINE PHOSPHATASE INHIBITORS AND METHODS OF USE THEREOF” (Calico Life Sciences LLC, priority 0001, published 2025)
